Assay results: PMC13286573, “Exploration of precision coregulator TR-FRET identifies diverse signatures for LXR ligands relevant to discovery of nonlipogenic ABCA1 inducers” (eLife, 2026)
“Also recorded” adds a separate entry of the source.

Legend:
LXRα [1] = molecular target: T1, LXRα (Homo sapiens, UniProt Q13133); test: SRC-1 coactivator recruitment to LXRα, coregulator TR-FRET (CRT); format: biochemical; design: The CRT selectivity assay incorporates GST-tagged LXR-LBD; purchased Thermo Fisher Scientific PV4657; conditions: maximal response relative to T0 (100%)
T1 sequence (Q13133 209-447 limits assumed): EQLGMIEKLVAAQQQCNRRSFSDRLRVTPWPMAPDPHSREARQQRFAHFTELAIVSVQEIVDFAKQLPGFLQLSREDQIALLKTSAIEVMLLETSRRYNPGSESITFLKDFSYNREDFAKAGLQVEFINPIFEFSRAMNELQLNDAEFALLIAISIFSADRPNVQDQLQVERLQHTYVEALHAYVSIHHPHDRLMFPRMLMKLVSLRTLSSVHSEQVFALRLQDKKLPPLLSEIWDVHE

HepG2 cells = test: Cell viability in HepG2 cells under SRE-luc conditions; format: cell-based, human; conditions: conditions of SRE-luc measurements
Description: Figure 5. Lipogenic response of HepG2 cells to treatment with liver X receptor (LXR) ligands. […] See Figure 3—figure supplement 1 for biological replicates. […] See Figure 5—figure supplement 1 for full concentration-response curves. Figure 5—figure supplement 1. Response of HepG2 cells to treatment with liver X receptor (LXR) ligands. (A–B) Lipogenic response of HepG2 cells to treatment with liver X receptor (LXR) ligands showing full concentration-response curves for biphenyl compounds shown in Figure 5E–F. (C) Cell viability in HepG2 cells under identical conditions to those used to obtain sterol response element (SRE)-luc data. [drawing 5]

LXRβ [2] = molecular target: T2, LXRβ (Homo sapiens, UniProt P55055); test: SRC-1 coactivator recruitment to LXRβ, coregulator TR-FRET (CRT); format: biochemical; design: The CRT selectivity assay incorporates GST-tagged LXR-LBD; purchased Thermo Fisher Scientific PV4660; conditions: for LXR isoform selectivity from SRC-1 CRT: LXRβ versus LXRα
T2 sequence (P55055 222-460 limits assumed): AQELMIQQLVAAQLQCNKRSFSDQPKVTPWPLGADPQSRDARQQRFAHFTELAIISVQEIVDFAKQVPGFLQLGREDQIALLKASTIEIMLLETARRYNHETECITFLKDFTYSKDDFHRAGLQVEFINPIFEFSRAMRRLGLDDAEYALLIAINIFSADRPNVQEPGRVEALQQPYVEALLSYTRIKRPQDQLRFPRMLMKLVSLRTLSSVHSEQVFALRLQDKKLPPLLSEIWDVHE

LXRα [3] = molecular target: T1, LXRα; test: NCOR2 corepressor binding to LXRα, CRT; format: biochemical; design: The CRT selectivity assay incorporates GST-tagged LXR-LBD; purchased Thermo Fisher Scientific PV4657; conditions: for activity at 1 µM: ligand 1 µM, interpolated from concentration-response, normalized, heat map Figure 9A, read-out: NCOR2α, relative % activity at 1 μM
ABCA1 = test: ABCA1-luc reporter assay in CCF-STTG1 astrocytoma cells; format: cell-based, human; conditions: for ABCA1 induction response/phenotype in CCF cells: normalized to T0
Description: Astrocytoma CCF-STTG1 cells, stably transfected with an ABCA1-promoter linked to a luciferase response element, provide a model for ABCA1 induction in astrocytes ([Ben Aissa et al., 2021]). […] Apparent inverse agonist activity in cell-based assays can result from ‘true’ inverse agonist recruitment of corepressors or from antagonist activity towards endogenous sterol LXR agonists. Although we use serum-stripped media, antagonism of endogenous LXR agonists cannot be ruled out.
Low passage CCF-STTG1 cells (20,000 cells/well) were seeded in 96-well plates in media containing charcoal-stripped FBS and incubated at 37 °C and 5% CO2 for 24 hr prior to a 24 hr treatment. All compounds were dissolved in DMSO, and final DMSO concentrations never exceeded 1%. After a 24 hr incubation period, add a volume of ONE-GLOEX Reagent that is equal to the volume of culture medium in each well and incubate for 3–5 min on the shaker. The luminescent activity of compounds ([…], 10-fold dilution) was examined using the ONE-GLOEX assay (Promega). […] The assays were performed in duplicates for each concentration, and the EC50 values were determined from non-linear regression analysis of the dose-response curve generated in GraphPad Prism 9.

LXRβ [4] = molecular target: T2, LXRβ; test: SMRT2 corepressor binding to LXRβ, CRT; format: biochemical; design: The CRT selectivity assay incorporates GST-tagged LXR-LBD; purchased Thermo Fisher Scientific PV4660; conditions: ligand 1 µM, interpolated from concentration-response, normalized; heat map Figure 9A; read-out: SMRT2β, relative % activity at 1 μM
LXRβ [5] = molecular target: T2, LXRβ; test: NCOR2 corepressor binding to LXRβ, CRT; format: biochemical; design: The CRT selectivity assay incorporates GST-tagged LXR-LBD; purchased Thermo Fisher Scientific PV4660; conditions: for activity at 1 µM: ligand 1 µM, interpolated from concentration-response, normalized, heat map Figure 9A, read-out: NCOR2β, relative % activity at 1 μM
LXRα [6] = molecular target: T1, LXRα; test: SMRT2 corepressor binding to LXRα, CRT; format: biochemical; design: The CRT selectivity assay incorporates GST-tagged LXR-LBD; purchased Thermo Fisher Scientific PV4657; conditions: ligand 1 µM, interpolated from concentration-response, normalized; heat map Figure 9A; read-out: SMRT2α, relative % activity at 1 μM
[7] = system: sterol response element (SRE); test: SRE-luc reporter assay in HepG2 cells; format: cell-based, human
Description: Our phenotypic high-throughput screen (HTS) approach to identify nonlipogenic ABCA1 Inducers (NLAI) originally used counterscreening with a SREBP1c-luciferase reporter (linked to the SREBF1 gene promoter) in human hepatocarcinoma HepG2 cells ([Ben Aissa et al., 2021]). Unwanted lipogenesis is mediated by LXR agonists via direct transcriptional activation and indirectly by the effects of SREBP1c ([Schultz et al., 2000]; [Brown and Goldstein, 1997]). SREBP1c enhances transcription of genes required for synthesis of fatty acids and TG and as the dominant isoform in liver is associated most closely with lipogenesis and TG elevation ([Brown and Goldstein, 1997]). […] Binding of SREBP1c to the sterol response element (SRE) induces transcription of lipogenic genes associated with elevated TG. To better model the lipogenic axis in hepatocytes, we use HepG2 cells stably transfected with a nanoluciferase reporter downstream of a SRE promoter (SRE-luc), activation of which requires SREBP1c maturation.
HepG2 cells were cotransfected with SRE (LDLR)-NlucP SuperPiggyBac Transposon and a separate Transposase plasmid (System Biosciences). Cells were expanded for multiple passages followed by selection with puromycin (1 μg/ml). Stable cells constitutively express GFP allowed for FACS enrichment and/or cell cloning. Initially, stable pools were compared to low expressing and high expressing enriched pools. The optimal pool was selected based on assay performance (Z’) and was grown and maintained as above, with the addition of 1.0 μg/mL of puromycin biweekly.
Cells were split into flasks containing CS medium (EMEM supplemented with 10% charcoal stripped FBS (Gibco A52567-01)) and 1% P/S and grown at 37 °C /5% CO2 for 48 hr before plating. Cells were plated in 384-well, white clear tissue culture plates (Greiner 781098) and allowed to grow at 37 °C /5% CO2 for 24 hr before medium was aspirated and compound dilutions prepared in CS medium were added. Following a 24 hr incubation, the medium was aspirated, and cells were lysed/luminescence quantified using the Nano-Glo Luciferase Assay System (Promega N1130).

LXR [8] = test: Corepressor (NCOR2, SMRT2) binding to LXR, CRT, statements across isoforms; format: biochemical; conditions: monoplex CRT, absence of coactivator
LXR [9] = test: Categorization of ligands by CRT/pCRT signature; format: biochemical; conditions: response at 1 µM ligand compared with theoretical signatures
Description: With the knowledge that, in pCRT, corepressors bind to the apo-receptor; whereas coactivator binding requires a ligand-induced conformational change, we can categorize all ligands using their CRT profiles. Ligands induce three LXR conformational ensembles with CoR (destabilizing D, stabilizing S, neutral N) and only two conformations with CoA (stabilizing S, neutral N) (Figure 9 (Table 1)). In categorizing ligands based upon these CRT characteristics, labels are needed.
The category for each ligand is not always identical for LXRα vs. LXRβ. Similarly, the phenotype associated with each classification is isoform dependent. Recruitment of CoA to LXRβ by FA, WA, and PA will activate transcription; whereas, lack of recruitment by SA, HA, and RA will antagonize transcription (Figure 9 (Table 1)). Stabilization of CoA and/or destabilization of CoR bound to LXRα is a derepression mechanism leading to activation/transcription for FA, WA, and RA; whereas partial activation is expected for PA.
To determine which LXR ligands fit with these theoretical CRT signatures, concentration-response curves were interpolated to measure normalized response at 1 µM ligand concentration and plotted as a heat map (Figure 9A).

cynomolgus monkeys = system: cynomolgus monkeys; design: method as in Groot et al., 2005; conditions: ref Groot et al., 2005; cited from earlier work
Hamsters = system: Hamsters; design: method as in Groot et al., 2005; conditions: ref Groot et al., 2005; cited from earlier work

Row | Structure (SMILES) | Efficacy profile for SRC-1 recruitment to LXRα (LXRα [1]) | HepG2 cell viability/cytotoxicity (HepG2 cells) | LXR isoform selectivity from SRC-1 CRT (LXRβ [2]) | Efficacy profile for SRC-1 recruitment to LXRβ (LXRβ [2]; maximal response relative to T0 (100%)) | activity at 1 µM (LXRα [3]) [%] | ABCA1 induction response/phenotype in CCF cells (ABCA1) | activity at 1 µM (LXRβ [4]) [%] | activity at 1 µM (LXRβ [5]) [%] | activity at 1 µM (LXRα [6]) [%] | SRE activation response/phenotype in HepG2 [7] | Corepressor (NCOR2, SMRT2) displacement or stabilization, across LXR isoforms (LXR [8]) | Selectivity for ABCA1 induction versus SRE activation (potency correlation outliers) (ABCA1; CCF ABCA1-luc versus HepG2 SRE-luc) | CRT/pCRT signature category (LXR [9]) | Effect on NCOR2 binding to LXRα (LXRα [3]; monoplex CRT, absence of SRC1) | Plasma LDL, HDL and TG (cynomolgus monkeys) | Effect on NCOR2 binding to LXRβ (LXRβ [5]; monoplex CRT, absence of SRC1) | Liver TG (Hamsters) | Plasma TG, LDL-C and VLDL-C (Hamsters)
1 | CC(C)C(O)CC[C@@H](C)[C@H]1CC[C@H]2[C@@H]3CC=C4C[C@@H](O)CC[C@]4(C)[C@H]3CC[C@]12C (stereo partly shown) [24HC, 24-hydroxycholesterol] | partial agonist | cytotoxic at higher concentrations | nonselective | partial agonist | – | – | – | – | – | – | – | – | – | – | – | – | – | –
2 | CCOC(=O)Cn1nc(C(F)(F)F)cc1-c1ccc(-c2cccc(S(C)(=O)=O)c2)cc1 [ALX101] | – | – | – | – | 100 | full agonist towards ABCA1 induction | 91.1 | 105 | 87.3 | partial agonist of SRE activation | less effective or ineffective in displacement of corepressors from LXRα | – | – | – | – | – | – | –
3 | Cc1cc(C)c(S(=O)(=O)N(Cc2ccc(-c3cccc(S(C)(=O)=O)c3)cc2)Cc2ccccc2F)c(C)c1 [BE1218] | – | – | most selective LXRβ agonists | – | 100 | partial agonist phenotype in both cell-based assays; also recorded: partial agonist response | 81.6 | 105 | 91.8 | partial agonist phenotype in both cell-based assays | ineffective in corepressor displacement from LXRα | selectivity for ABCA1 induction | – | – | – | – | – | –
4 | COc1ccc(NC2=C(c3ccccc3)C(=O)N(Cc3ccccc3)C2=O)cc1 [GSK3987] | – | – | weakly selective for LXRβ | – | 97.7 | – | 84 | 97.4 | 69.9 | – | strong agonist responses | – | FA (full agonist (FA)) | – | – | – | – | –
5 | C[C@H](CCOc1cccc(CC(=O)O)c1)N(Cc1cccc(C(F)(F)F)c1Cl)CC(c1ccccc1)c1ccccc1 [RGX-104] | – | – | – | – | 99.8 | – | 82 | 103 | 93.4 | – | strong agonist responses | – | – | displacement of NCOR2 from both LXR isoforms | robust time-dependent increase in TG and LDL | displacement of NCOR2 from both LXR isoforms | significantly increased liver TG | dose-dependent increase
